Here are results for eight compounds from patent US9725468B2, “C5-spiro iminothiazine dioxides as BACE inhibitors, compositions, and their use” (Merck Sharp & Dohme Corp., priority 2013, dated 2017).

Assay [1] addresses soluble human BACE1 catalytic domain (Homo sapiens, UniProt P56817). In words: BACE1 HTRF FRET Assay. As to conditions: Ki calculated from IC50 using the Cheng-Prusoff equation; QSY7-APPswe-Eu substrate 200 nM, pH 5.0. The format is biochemical. From the text: Na^+-Acetate pH 5.0; 1% Brij-35; Glycerol; Dimethyl Sulfoxide (DMSO); Recombinant human soluble BACE1 catalytic domain (>95% pure); APP Swedish mutant peptide substrate (QSY7-APP^swe-Eu): QSY7-EISEVNLDAEFC-Europium-amide.
A homogeneous time-resolved FRET assay can be used to determine IC50 values for inhibitors of the soluble human BACE1 catalytic domain. This assay monitors the increase of 620 nm fluorescence that resulted from BACE1 cleavage of an APPswedish APP^swe mutant peptide FRET substrate (QSY7-EISEVNLDAEFC-Europium-amide). This substrate contains an N-terminal QSY7 moiety that serves as a quencher of the C-terminal Europium fluorophore (620 nm Em). In the absence of enzyme activity, 620 nm fluorescence is low in the assay and increased linearly over 3 hours in the presence of uninhibited BACE1 enzyme. Inhibition of BACE1 cleavage of the QSY7-APP^swe-Eu substrate by inhibitors is manifested as a suppression of 620 nm fluorescence.
Varying concentrations of inhibitors at 3× the final desired concentration in a volume of 10 ul are preincubated with purified human BACE1 catalytic domain (3 nM in 10 μl) for 30 minutes at 30° C. in reaction buffer containing 20 mM Na-Acetate pH 5.0, 10% glycerol, 0.1% Brij-35 and 7.5% DSMO. Reactions are initiated by addition of 10 μl of 600 nM QSY7-APP^swe-Eu substrate (200 nM final) to give a final reaction volume of 30 μl in a 384 well Nunc HTRF plate. The reactions are incubated at 30° C. for 1.5 hours. The 620 nm fluorescence is then read on a Rubystar HTRF plate reader (BMG Labtechnologies) using a 50 millisecond delay followed by a 400 millisecond acquisition time window. Inhibitor IC50 values are derived from non-linear regression analysis of concentration response curves. Ki values are then calculated from IC50 values using the Cheng-Prusoff equation using a previously determined […] for the QSY7-APP^swe-Eu substrate at BACE1.

For assay [2], the target named is T1, purified human autoBACE-2 (Homo sapiens, UniProt Q9Y5Z0).
T1 sequence (Q9Y5Z0 63-473 limits assumed): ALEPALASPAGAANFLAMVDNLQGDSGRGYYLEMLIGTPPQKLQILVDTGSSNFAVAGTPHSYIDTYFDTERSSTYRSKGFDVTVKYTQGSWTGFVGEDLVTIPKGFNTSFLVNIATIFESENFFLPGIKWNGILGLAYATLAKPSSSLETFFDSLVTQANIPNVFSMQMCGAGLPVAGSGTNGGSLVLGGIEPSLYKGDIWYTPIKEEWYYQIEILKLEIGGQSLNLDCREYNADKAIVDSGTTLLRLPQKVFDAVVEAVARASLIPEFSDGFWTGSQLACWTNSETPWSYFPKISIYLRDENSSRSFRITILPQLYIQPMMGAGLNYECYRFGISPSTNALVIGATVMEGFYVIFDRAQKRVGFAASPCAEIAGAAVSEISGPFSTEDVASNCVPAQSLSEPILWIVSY
In words: BACE-2 Assay (BACE-HTRF assay). The format is biochemical. As to conditions: Ki calculated from IC50 using the Cheng-Prusoff equation; QSY7-EISEVNLDAEFC-Eu-amide substrate 200 nM, pH 5.0; read-out: BACE2 Ki. How it is done:
Inhibitor ICsos at purified human autoBACE-2 are determined in a time-resolved endpoint proteolysis assay that measures hydrolysis of the QSY7-EISEVNLDAEFC-Eu-amide FRET peptide substrate (BACE-HTRF assay). BACE-mediated hydrolysis of this peptide results in an increase in relative fluorescence (RFU) at 620 nm after excitation with 320 nm light. Inhibitor compounds, prepared at 3× the desired final concentration in 1×BACE assay buffer (20 mM sodium acetate pH 5.0, 10% glycerol, 0.1% Brij-35) supplemented with 7.5% DMSO are preincubated with an equal volume of autoBACE-2 enzyme diluted in 1×BACE assay buffer (final enzyme concentration 1 nM) in black 384-well NUNC plates for 30 minutes at 30° C. The assay is initiated by addition of an equal volume of the QSY7-EISEVNLDAEFC-Eu-amide substrate (200 nM final concentration, […]) prepared in 1×BACE assay buffer supplemented with 7.5% DMSO and incubated for 90 minutes at 30° C. DMSO is present at 5% final concentration in the assay. Following laser excitation of sample wells at 320 nm, the fluorescence signal at 620 nm is collected for 400 ms following a 50 μs delay on a RUBYstar HTRF plate reader (BMG Labtechnologies). Raw RFU data is normalized to maximum (1.0 nM BACE/DMSO) and minimum (no enzyme/DMSO) RFU values. IC50s are determined by nonlinear regression analysis (sigmoidal dose response, variable slope) of percent inhibition data with minimum and maximum values set to 0 and 100 percent respectively. Similar IC50s are obtained when using raw RFU data. The Ki values are calculated from the IC50 using the Cheng-Prusoff equation.

Chain of soluble human BACE1 catalytic domain (P56817 75-416 limits assumed): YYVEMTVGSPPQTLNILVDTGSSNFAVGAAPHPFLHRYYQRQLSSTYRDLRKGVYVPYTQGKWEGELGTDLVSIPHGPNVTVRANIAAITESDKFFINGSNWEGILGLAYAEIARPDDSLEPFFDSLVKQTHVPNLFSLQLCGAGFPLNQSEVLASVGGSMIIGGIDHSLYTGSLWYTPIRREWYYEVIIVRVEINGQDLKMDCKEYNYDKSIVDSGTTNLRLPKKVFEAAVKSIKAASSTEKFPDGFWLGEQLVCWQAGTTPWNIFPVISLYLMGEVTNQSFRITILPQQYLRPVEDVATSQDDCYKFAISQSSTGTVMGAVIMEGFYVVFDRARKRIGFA

As usually defined, the Ki is a dissociation constant, usually derived from enzyme kinetics or from competition with a known ligand. Take `CC1(C)C(=N)N[C@@]2(CCOc3ccc(NC(=O)c4cc5ccccn5n4)cc32)CS1(=O)=O` [Example C-5]: the Ki in assay [1] is 223 nM; in assay [2], 49 nM.

For `CC1(C)C(=N)N[C@@]2(COCc3ccc(NC(=O)c4cc5ccccn5n4)cc32)CS1(=O)=O` [Example E-2], the Ki is 1200 nM in assay [1] and 200 nM in assay [2].

Turning to `Cc1nc(C(=O)Nc2ccc3c(c2)[C@]2(COC3)CS(=O)(=O)C(C)(C)C(=N)N2)co1` [Example E-23], the Ki was 66 nM in assay [1] and 7 nM in assay [2].

For `CC1(C)C(=N)N[C@@]2(COCc3ccc(NC(=O)c4cnc(OCCF)cn4)cc32)CS1(=O)=O` [Example E-17], the Ki is 326 nM in assay [1] and 443 nM in assay [2].

Consider `C#CCOc1cnc(C(=O)Nc2ccc3c(c2)[C@]2(CCC3)CS(=O)(=O)C(C)(C)C(=N)N2)cn1` [Example G-5], for which the figures for the Ki in assay [1] and in assay [2] were 7 nM and 20 nM, respectively.

As for `CC1(C)C(=N)N[C@@]2(CCCc3ccc(NC(=O)c4ccn(C(F)F)n4)cc32)CS1(=O)=O` [Example G-4], the Ki in assay [1] is 4 nM; in assay [2], 1 nM.

On to `CC1(C)C(=N)N[C@@]2(CCOc3ccc(NC(=O)C(F)F)cc32)CS1(=O)=O` [Example B-4], for which the Ki was 1280 nM in assay [1] and 115 nM in assay [2].

As to `CC1(C)C(=N)N[C@@]2(CCCc3ccc(NC(=O)c4cnc(C(F)(F)F)cn4)cc32)CS1(=O)=O` [Example G-12], the Ki was 57 nM in assay [1] and 163 nM in assay [2].
